Article PMC8795197, “Safety and activity of WX-0593 (Iruplinalkib) in patients with ALK- or ROS1-rearranged advanced non-small cell lung cancer: a phase 1 dose-escalation and dose-expansion trial” (Signal Transduction and Targeted Therapy, 2022)
pIC50: −log10 of the molar value. Where two headings read alike, the source gives them in different places.

Assays:
[1] = General pharmacology: cardiovascular system; format: in vivo, monkeys
Protocol: […]. Therefore, WX-0593 has a low risk of cardiotoxicity. There were no effects on the CNS and respiratory system in rats at doses of 3, 10, and 30 mg/kg. However, WX-0593 10 and 30 mg/kg may result in benign respiratory rate and decreases in minute ventilation in female rats. There were no effects on the cardiovascular system, blood pressure, ECG parameters or waveforms in monkeys at doses of 5, 10, and 25 mg/kg; 10 and 25 mg/kg may result in mild decreases in heart rate (within the normal range) and PR prolongation and QTc shortening associated with bradycardia within the normal range (no statistical difference when compared to the control arm). No cardiovascular system adverse reactions related to the test product were found. The human equivalent dose (using 60 kg) is 3636 mg/person in CNS, 3636 mg/person in male respiratory system and 363.6 mg/person in female respiratory system, and 607 mg/person in cardiovascular system.

[2] = tested on: Ba/F3 (EML4-ALK-L1196M); assay: Cell proliferation inhibition assay; format: cell-based
[3] = tested on: Ba/F3 ALK-F1174L; assay: Growth of transfected Ba/F3 cells (CellTiter-Glo, 3 days); format: cell-based; conditions: Mus musculus, BaF3; ALK-F1174L; read-out: IC50
Protocol: (§1) Harvest cells during the logarithmic growth period and count cells using blood counting chamber. Adjust cell concentration with culture medium. Add 90µl cell suspensions to two 96-well plates to the final cell density as described before. Incubate the plate overnight in humidified incubator at 37℃ with 5% CO2. Dispense 10µl drug solution (10×) to each well (triplicate for each concentration), and the DMSO final concentration in culture medium is 0.1% [v/v]. Culture the plates for 3 days. On Day 3, Read luminescent using Multi Label Reader. The software of GraphPad Prism was used to calculate IC50. The graphical curves were fitted using a nonlinear regression model with a sigmoidal dose response.

[4] = tested on: Ba/F3 ALK-L1152R; assay: as above; format: cell-based; conditions: Mus musculus, BaF3; ALK-L1152R; read-out: IC50
Protocol: as §1

[5] = tested on: Ba/F3 ALK-C1156Y; assay: as above; format: cell-based; conditions: Mus musculus, BaF3; ALK-C1156Y; read-out: IC50
Protocol: as §1

[6] = tested on: Ba/F3 ALK-I1171T; assay: as above; format: cell-based; conditions: Mus musculus, BaF3; ALK-I1171T; read-out: IC50
Protocol: as §1

[7] = tested on: Ba/F3 ALK-G1269A; assay: as above; format: cell-based; conditions: Mus musculus, BaF3; ALK-G1269A; read-out: IC50
Protocol: as §1

[8] = tested on: Ba/F3 ALK-F1174C; assay: as above; format: cell-based; conditions: Mus musculus, BaF3, ALK-F1174C, read-out: IC50
Protocol: as §1

[9] = tested on: Ba/F3 ALK-G1202R; assay: as above; format: cell-based; conditions: Mus musculus, BaF3; ALK-G1202R; read-out: IC50
Protocol: as §1

[10] = tested on: Ba/F3 ALK-L1196M; assay: as above; format: cell-based; conditions: Mus musculus, BaF3; ALK-L1196M; read-out: IC50
Protocol: as §1

[11] = tested on: Ba/F3 ALK-I1171N; assay: as above; format: cell-based; conditions: Mus musculus, BaF3; ALK-I1171N; read-out: IC50
Protocol: as §1

[12] = tested on: Ba/F3 ALK-WT; assay: as above; format: cell-based; conditions: Mus musculus, BaF3; ALK-WT; read-out: IC50
Protocol: as §1

[13] = Metabolite identification in plasma; format: in vivo, cynomolgus monkey; conditions: oral WX-0593
Excerpt: Under current experimental conditions, 1 metabolite in addition to the parent drug was detected in monkey plasma: a demethylation metabolite, M2 (MW = 554.23, P - CH2). Based on the % peak area from mass spectrometry, the drug exists primarily as the parent drug in the plasma of both male and female monkeys (99.06% in females and 99.47% in males). Metabolite M2 (0.94% in females and 0.53% in males) was a secondary metabolite. Based on the types of metabolites, it is speculated that WX-0593 is mainly metabolized through demethylation after oral administration in monkeys. There was no significant difference in metabolites between female and male monkeys.

[14] = molecular target: Eta (Homo sapiens, UniProt P25101); assay: GPCR antagonist screening assay; format: cell-based
Eta, sequence (P25101 21-427): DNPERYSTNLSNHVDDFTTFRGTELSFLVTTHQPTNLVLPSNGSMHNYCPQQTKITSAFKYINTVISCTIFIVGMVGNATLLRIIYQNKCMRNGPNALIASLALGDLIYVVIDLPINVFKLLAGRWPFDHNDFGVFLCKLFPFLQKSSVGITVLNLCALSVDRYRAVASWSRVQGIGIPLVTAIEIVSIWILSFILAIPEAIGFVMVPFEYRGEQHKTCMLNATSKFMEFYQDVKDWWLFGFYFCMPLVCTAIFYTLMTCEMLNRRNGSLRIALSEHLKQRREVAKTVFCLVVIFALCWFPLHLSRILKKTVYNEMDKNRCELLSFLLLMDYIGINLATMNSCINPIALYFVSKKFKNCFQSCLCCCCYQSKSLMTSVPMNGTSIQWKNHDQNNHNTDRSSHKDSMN

For COc1cc(N2CCC3(CCN(C)CC3)CC2)ccc1Nc1ncc(Cl)c(Nc2ccccc2P(C)(C)=O)n1 [WX-0593], the “effects on cardiovascular system, blood pressure, ECG parameters or waveforms” value ([1]; 5, 10 and 25 mg/kg) was “no effects”, the “human equivalent dose, cardiovascular system” value ([1]; using 60 kg) was 607 mg/person and the growth inhibition [2] was “significantly inhibits the growth”. The pIC50 [3] was 7.44, the pIC50 [4] was 8.34 and the pIC50 [5] was 8.05. For the same molecule, the pIC50 [6] was 7.95, the pIC50 [7] was 7.44 and the pIC50 ([8]; first listing (r10)) was 7.44. For the same molecule, the pIC50 ([8]; second listing (r15)) was 7.53, the pIC50 [9] was 7.02 and the pIC50 [10] was 7.44. For the same molecule, the pIC50 [11] was 7.75, the pIC50 [12] was 7.68 and the “% peak area from mass spectrometry in plasma” value ([13]; female monkeys) was 99.06%. The “% peak area from mass spectrometry in plasma” value ([13]; male monkeys) was 99.47% and the pIC50 [14] was 6.30.
